Ends that are not written are not given here.
Experiments:
[1] = tested on: mouse neuroblastoma (Neuro2a) cells; assay: Cell viability by WST-8 method after addition of incubated reaction solutions (Example B6); type: cell-based; conditions: reaction solution containing only the aggregation inhibiting peptide
Protocol: Then, reaction solutions with the following compositions were prepared using these solutions. The reaction solutions were incubated at 37° C. for 24 hours.
Meanwhile, 0.15 mL of medium per well was placed in the wells of a 96-well plate, and mouse neuroblastoma (Neuro2a) cells were seeded to be 2.66×10^4 cells per well. After incubation at 37° C. for 24 hours, 50 μL of each reaction solution after the incubation was added per well and further incubated at 37° C. for 24 hours. The cell viability (%) was then measured for each well by the WST-8 method.

[2] = Solubility in aqueous solvent, visual check for precipitation; type: physicochemical; conditions: room temperature
Protocol: For each of the example peptides (Syn FPs) and the comparative example peptides, a 1 mmol/L peptide solution was prepared using MilliQ water as an aqueous solvent.
Each peptide was dissolved in a saline solution to prepare a 1 mmol/L sample solution.

Syn61-84 = Syn61-84 (Homo sapiens, UniProt P37840); assay: Inhibition of aggregate formation of Syn61-84, ThT fluorescence (Example B2); type: biochemical
Protocol: Specifically, reaction solutions with the following compositions were prepared and each dispensed into wells such that the amount of the reaction solution per well was 200 μL. In the following compositions, X mmol/L peptides (aggregation inhibiting peptide solutions: YS-11 and LYZA-3) were prepared using MilliQ water, and the concentration X mmol/L was set to 1 μmol/L, […], and 100 μmol/L in the reaction solutions. […] After the reaction solutions were incubated at 37° C. for 24 hours, 10 μL of 2 mmol/L ThT was added per well, and the fluorescence intensity was measured using a measurement device (product name: Cytation5, manufactured by BioTek) (n=3). The measurement wavelengths were set such that the excitation wavelength (ex) was 444 nm and the fluorescence wavelength (em) was 480 nm. As a control, a reaction solution to which water was added instead of the aggregation inhibiting peptides (YS-11 and LYZA-3) was also measured in the same way.

Syn61-84 aggregates = Syn61-84 aggregates (Homo sapiens, UniProt P37840); assay: Dissociation of Syn61-84 aggregates, ThT fluorescence (Example B3); type: biochemical; conditions: peptide 0.1, 1, 10, 100 μmol/L; 0.1 mM preformed Syn61-84 aggregates; 37° C. 24 hours
Protocol: Then, reaction solutions with the following compositions were prepared and each dispensed into wells such that the amount of the reaction solution per well was 200 μL, and, after the reaction solutions were incubated at 37° C. for 24 hours, 10 μL of 2 mmol/L ThT was added per well, and the fluorescence intensity was measured using a measurement device (product name Cytation5, manufactured by BioTek) (n=3). The measurement wavelengths were set such that the excitation wavelength (ex) was 444 nm and the fluorescence wavelength (em) was 480 nm. In the following compositions, X mmol/L peptides (aggregation inhibiting peptides: YS-11 and LYZA-3) were prepared using MilliQ water, and the concentration X mmol/L was set to 0.1 μmol/L, 1 μmol/L, 10 μmol/L, and 100 μmol/L in the reaction solutions. As a control, a reaction solution to which water was added instead of the peptide YS-11 and the peptide LYZA-3 was also measured in the same way.

[3] = tested on: Parkinson's disease model mice; assay: Y-maze test in Parkinson's disease model mice produced with Syn61-84 (Example B4); type: in vivo; conditions: Day 74; 4 μL of 1 mmol/L inhibiting peptide on Day 56 to Syn61-84 mice
Protocol: (§1) As a control, a saline solution (Saline) was used.
(§2) The aggregation inhibiting peptide was not administered to the Saline administration group (n=3).
(§3) The short-term memory was evaluated through a Y-maze test on Day 14, Day 56, and Day 74, and the motor function was evaluated through a Rota-Rod test on Day 21, Day 55, Day 63, and Day 70. […] The Rota-Rod test was conducted using a rotor-rod device for mice (product name: MK-670, manufactured by Muromachi Kikai Co., Ltd.), with the rotational speed of the rotor set at 10 or 20 rpm, and the time until a mouse on the rotating rotor fell was measured.

[4] = tested on: Parkinson's disease model mice; assay: Rota-Rod test in Parkinson's disease model mice produced with Syn61-84 (Example B4); type: in vivo
Protocol: as §1, §2, §3

**Q.** Which “cell viability (control taken as 100%)” value [1] does the source give for RETLVYLTHLD [YS-11] here?
**A.** The value was “no effect on the cell viability”.

**Q.** Which “solubility (visual precipitation)” value ([2]; 1 mmol/L in saline solution) does the source give for “VVTGVTAVAQKTVEG [Syn70-84, reference compound]” here?
**A.** Its value is “No precipitation”.

**Q.** For “YSNFNTDY (aggregation inhibitor peptide) [LYZA-3]”, which “aggregation inhibition ability compared at the same concentration (formation of aggregates)” value (Syn61-84; comparison between FIGS. 4(A) and 4(B)) is on record?
**A.** The value was “greater aggregation inhibition ability than the peptide YS-11”.

**Q.** What about the “fluorescence intensity (ThT) compared with the control (Syn61-84)” value (Syn61-84; peptide 1 μmol/L, 100 μmol/L, 0.1 mM Syn61-84, 37° C. 24 hours) of the same substance?
**A.** The value was “decreased in a concentration-dependent manner”.

**Q.** And the “fluorescence intensity (ThT) compared with the control (Syn61-84), dissociation of aggregates” value (Syn61-84 aggregates)?
**A.** The value was “fluorescence intensity decreased”.

**Q.** What about the “alternation rate (Y-maze) compared with Saline administration group” value [3] of the same substance?
**A.** The value was “increase in the alternation rate”.

**Q.** What about the “spent time (Rota-Rod) at 10 rpm” value ([4]; 10 rpm, RR-3 and RR-4 after inhibiting peptide on Day 56) of the same substance?
**A.** Its value is “significant increase”.

**Q.** And the “spent time (Rota-Rod) at 10 rpm versus Saline administration group” value ([4]; 10 rpm, RR-4)?
**A.** Its value is “longer than that of the Saline administration group”.

**Q.** And the “spent time (Rota-Rod)” value ([4]; RR-3 and RR-4, after inhibiting peptide on Day 56 to Syn61-84 mice)?
**A.** Its value is “increase in the spent time”.

**Q.** For α-synuclein [full-length Syn], which “solubility (visual precipitation)” value ([2]; 1 mmol/L in MilliQ water) is on record?
**A.** Its value is “precipitation of Syn was immediately visible”.

From patent US20240238366A1, “alpha-SYNUCLEIN AGGREGATION INHIBITOR, PHARMACEUTICAL COMPOSITION FOR alpha-SYNUCLEIN DISEASE, AND USE THEREOF” (O-FORCE CO., LTD., priority 2021, published 2024)
